Experimental data published in paper PMC4865845, “A human genome-wide loss-of-function screen identifies effective chikungunya antiviral drugs” (Nature Communications, 2016).

system: CHIKV; format: cell-based, chikungunya virus

Substance	Score_si2	Score_si4	Score_si3	Score_si1
s9326 (GGACTTAGTATAATGTGAA; chemistry not given here)	1	–	–	–
s9337 (GCTCTCCAACAATTACTAT; chemistry not given here) [reference compound]	–	-0.09	–	–
s9338 (ACAAGCTCTCCAACAATTA; chemistry not given here) [reference compound]	-0.79	–	–	–
s9339 (TCACTTCTAGTTTTACTTT; chemistry not given here) [reference compound]	–	–	-0.69	–
s9627 (GGACCAGTTTGAGAGTGAA; chemistry not given here)	1.39	–	–	–
s9628 (GACCTAAAGAAGGAGATTA; chemistry not given here)	–	1.13	–	–
s9665 (CTCTCGTCCTTCTAGTAAA; chemistry not given here) [reference compound]	–	–	-0.95	–
s9666 (CGTGTACTCTGTTTCGACA; chemistry not given here) [reference compound]	–	-0.83	–	–
s9719 (GGTCTATGATTGACAAGTA; chemistry not given here)	–	–	–	1.65
s10094 (AGATCAAAGAGATCCGCGA; chemistry not given here)	–	0.28	–	–
s10096 (GGTGTAAGATCAAAGAGAT; chemistry not given here)	–	–	1.3	–
s10394 (GCTTTATGCTGCTAAGGCA; chemistry not given here)	–	1.23	–	–
s10395 (sense GGACGACTTCTTTAAGTCA; chemistry not given here)	–	–	1.58	–
s10856 (sense AAGTTTACGTGAACAAATT; chemistry not given here)	–	–	-0.27	–
s10857 (sense GAATCCGGTTTGGAATATA; chemistry not given here)	–	-0.29	–	–
s10858 (sense CCCGCTTTATCGAAGGCAA; chemistry not given here)	1.05	–	–	–
s10955 (sense GAGAAGAAGTATTACTTAT; chemistry not given here)	–	0.29	–	–
s10956 (sense CAAGCGGATTTCTACCCTT; chemistry not given here)	–	–	–	1.05
s11515 (sense GGATAACACTGTACAAGCT; chemistry not given here)	–	–	–	1.79
s11517 (sense GCGAAGTGTTTGTAAATCA; chemistry not given here)	–	1.19	–	–

Substance	Score_si2	Score_si4	Score_si3	Score_si1
s11586 (sense GGATAGTGTTCTTAGCAAT; chemistry not given here)	–	0.13	–	–
s11587 (sense CAGGTCACATTGTTCCTGA; chemistry not given here)	1.27	–	–	–
s11745 (sense CACTCTCTGTAAGCATATA; chemistry not given here)	1.42	–	–	–
s12099 (sense GCTTGTAGGTGATACACCT; chemistry not given here)	1.09	–	–	–
s12109 (sense CAGCCCTTGTTCTCATCAA; chemistry not given here)	–	–	1.16	–
s12110 (sense CAATCTCTCTTATCCTTGA; chemistry not given here)	1.28	–	–	–
s12243 (sense GCTGGGACAAGACACTGTA; chemistry not given here)	–	–	1.87	–
s12245 (sense CCATCAGGACCACTATTAA; chemistry not given here)	–	0.57	–	–
s12353 (sense GGCATGTCGGTTACAAGAA; chemistry not given here)	–	–	–	1.86
s12381 (sense AGGCTCAGATCGACCAATA; chemistry not given here)	–	–	0.71	–
s12382 (sense GATCCGAGCTAAAATCCCA; chemistry not given here)	1.86	–	–	–
s12384 (sense TCGTCCTCTTTAACCCTGA; chemistry not given here)	–	–	1.24	–
s12452 (sense GGACCAAGATGATCAGAAA; chemistry not given here)	–	0.08	–	–
s12470 (sense GGATGTGGACAACAAAGTA; chemistry not given here)	–	1.56	–	–
s12471 (sense CTTCTGTACCCATCAGTAA; chemistry not given here)	–	–	1.63	–
s13805 (sense TCACTGTGCTGATCGGGAA; chemistry not given here)	–	–	0.78	–
s13806 (sense TCATCACCGTGTCCAATCA; chemistry not given here)	1.6	–	–	–
s13807 (sense GCATCTGAAGACTCAGGCA; chemistry not given here)	–	-0.26	–	–
s14080 (sense GAGTGGTCTTTTCAACACT; chemistry not given here)	1.38	–	–	–
s14380 (sense GGACCACGTCAAGACTTGT; chemistry not given here) [reference compound]	–	–	-0.84	–

Substance	Score_si2	Score_si4	Score_si3	Score_si1
s14674 (sense GTATGAAGGAGGTATCTTT; chemistry not given here)	2.12	–	–	–
s14705 (sense GCAGTTGAATTATCACAGT; chemistry not given here)	1.97	–	–	–
s14706 (sense GCATGATCTAGATCGAGTA; chemistry not given here)	–	–	1.88	–
s15562 (sense GCTTAGAAATGGACGACGA; chemistry not given here) [reference compound]	–	–	-0.27	–
s15564 (sense GCTTGAAGCTGAAAAGCGA; chemistry not given here) [reference compound]	–	1.62	–	–
s15614 (sense GCAAGTCGTGAAACTATAA; chemistry not given here)	–	0.64	–	–
s15684 (sense GGAGCTGATCATCAACAAA; chemistry not given here)	–	1.33	–	–
s15685 (sense GGATGAGAGTCGCACCTAT; chemistry not given here)	–	–	–	2.03
s15686 (sense CCATCCACATGTACATCAA; chemistry not given here)	1.49	–	–	–
s15687 (sense CCCGTATCATGATCCACCA; chemistry not given here)	–	–	–	1.56
s15796 (CTACGATTCTGGTGGAATA; chemistry not given here)	–	–	–	1.5
s15797 (GGAATTACGGAGATATAGA; chemistry not given here)	–	–	1.45	–
s15798 (GAATTACGGAGATATAGAA; chemistry not given here)	1.46	–	–	–
s16045 (GGTTTATCCACGGTAAAGA; chemistry not given here) [reference compound]	–	-0.44	–	–
s16046 (GCACAGATCCTTCCGTTTA; chemistry not given here) [reference compound]	–	–	-0.45	–
s16047 (GAACCCATATTATTAGTGA; chemistry not given here) [reference compound]	-0.72	–	–	–
s16316 (GAATTAGGAAGGACTATTT; chemistry not given here)	0.85	–	–	–
s16317 (GAACGAGTCCTTGAAGGTT; chemistry not given here)	–	0.08	–	–
s16318 (AGGCATCTTTGAGACGATT; chemistry not given here)	–	–	0.61	–
s16459 (GATGGATCCATGTAATACA; chemistry not given here)	–	0.81	–	–
